Test results: PMC10999543, “Identification of kinase modulators as host-directed therapeutics against intracellular methicillin-resistant Staphylococcus aureus” (Frontiers in Cellular and Infection Microbiology, 2024)
Like-named read-outs stand apart in the source and are kept apart here.

Assays:
intracellular MRSA = type: cell-based, Staphylococcus aureus; settings: for %GFP+ rep 1 / z-scoreMRSA+ rep 1: replicate 1; for %GFP+ rep 2 / z-scoreMRSA+ rep 2: replicate 2; for %GFP+ rep 3 / z-scoreMRSA+ rep 3: replicate 3; for z-scoreMRSA+ mean: mean of 3 replicates
Procedure, shortened: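 HeLa cells infected with GFP-MRSA (MOI ~6.8), gentamicin-cleared, then incubated overnight at 37°C with inhibitors plus 5 µg/ml gentamicin; DMSO as negative control, triplicates. Flow cytometry gave % GFP-positive cells and cell count (viability surrogate); hits by plate z-score (MRSA ≤ -2, HeLa count ≥ -3).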

HeLa cells = test: Compound screen by flow cytometry: HeLa cell count as surrogate readout of cell viability (z-scoreHeLa); type: cell-based, human
Procedure, shortened: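 HeLa cells were infected with GFP-MRSA (mean MOI 6.8 ± 4.6) for 1 h, and extracellular bacteria were killed with 30 µg/ml gentamicin. Cells were then incubated overnight with kinase inhibitors in 5 µg/ml gentamicin, in triplicate against DMSO controls. Flow-cytometric cell count served as a viability surrogate, expressed as a plate z-score.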

[1] = PKIS compound screen raw data, MRSA-infected HeLa cells
[2] = Yes/No: effect without cell death
[3] = compound screen, MRSA-infected HeLa cells
[4] = PKIS compound screen, Yes/No call
[5] = PKIS compound screen, Yes/No call (effect without cell death)
[6] = PKIS compounds raw data, MRSA-infected HeLa cells
[7] = PKIS compound screen, mean of 3 replicates
[8] = PKIS compound screen, replicate 1
[9] = PKIS compound screen, replicate 2
[10] = PKIS compound screen, replicate 3
[11] = PKIS compounds raw data, replicate 1, HeLa cell count
[12] = PKIS compounds raw data, replicate 2, HeLa cell count
[13] = PKIS compounds raw data, replicate 3, HeLa cell count
[14] = PKIS compound screen, MRSA-infected HeLa cells
[15] = PKIS compound screen, Yes/No call on z-scoreMRSA+
[16] = PKIS compound screen raw data, HeLa cell count, replicate 1
[17] = PKIS compound screen raw data, HeLa cell count, replicate 2
[18] = PKIS compound screen raw data, HeLa cell count, replicate 3
[19] = PKIS compound screen, HeLa cell count, mean of 3 replicates
[20] = PKIS compound screen, HeLa cell count, replicate 1
[21] = PKIS compound screen, HeLa cell count, replicate 2
[22] = PKIS compound screen, HeLa cell count, replicate 3
[23] = PKIS compound screen, Yes/No call on z-scoreHeLa
[24] = compound screen, HeLa cell count, mean of 3 replicates
[25] = compound screen, HeLa cell count, replicate 1
[26] = compound screen, HeLa cell count, replicate 2
[27] = compound screen, HeLa cell count, replicate 3

Compound | %GFP+ rep 1 (intracellular MRSA; [1]) | %GFP+ rep 2 (intracellular MRSA; [1]) | %GFP+ rep 3 (intracellular MRSA; [1]) | effect (intracellular MRSA; Yes/No call from z-scoreMRSA+) | hit (intracellular MRSA; [2]) | z-scoreMRSA+ mean (intracellular MRSA; [3]) | hit (intracellular MRSA; [5]) | z-scoreMRSA+ mean (intracellular MRSA; [14]) | z-scoreMRSA+ rep 1 (intracellular MRSA; [14]) | z-scoreMRSA+ rep 2 (intracellular MRSA; [14]) | z-scoreMRSA+ rep 3 (intracellular MRSA; [14]) | effect (intracellular MRSA; [15]) | cell count rep 1 (HeLa cells; [16]) | cell count rep 2 (HeLa cells; [17]) | cell count rep 3 (HeLa cells; [18]) | z-scoreHeLa mean (HeLa cells; [19]) | z-scoreHeLa rep 1 (HeLa cells; [20]) | z-scoreHeLa rep 2 (HeLa cells; [21]) | z-scoreHeLa rep 3 (HeLa cells; [22]) | cell death (HeLa cells; [23]) | also measured
O=C1Nc2ccc(I)cc2C1=Cc1cc(Br)c(O)c(Br)c1 [GW305074X] | 19.6% | 17.6% | 21.1% | No | No | -0.96 |  |  |  |  |  |  |  |  |  |  |  |  |  |  | z-scoreMRSA+ rep 1 (intracellular MRSA; [3]): -1.32; z-scoreMRSA+ rep 2 (intracellular MRSA; [3]): -1.22; z-scoreMRSA+ rep 3 (intracellular MRSA; [3]): -0.33; cell death (HeLa cells): No; cell count rep 1 (HeLa cells; human): 1595; cell count rep 2 (HeLa cells; human): 1814; cell count rep 3 (HeLa cells; human): 1196; z-scoreHeLa mean (HeLa cells; human): -2.15; z-scoreHeLa rep 1 (HeLa cells; human): -1.99; z-scoreHeLa rep 2 (HeLa cells; human): -1.91; z-scoreHeLa rep 3 (HeLa cells; human): -2.55
COC(=O)c1ccc2c(c1)C(=Cc1cc(Br)c(O)c(Br)c1)C(=O)N2 [GW405841X] |  |  |  |  |  |  | No |  |  |  |  |  |  |  |  |  |  |  |  |  | effect (intracellular MRSA; [4]): No; z-scoreMRSA+ mean (intracellular MRSA; PKIS compound screen): -0.17; z-scoreMRSA+ rep 1 (intracellular MRSA; PKIS compound screen): 0.00934; z-scoreMRSA+ rep 2 (intracellular MRSA; PKIS compound screen): 0.0349; z-scoreMRSA+ rep 3 (intracellular MRSA; PKIS compound screen): -0.56; %GFP+ rep 1 (intracellular MRSA; [6]): 13.2%; %GFP+ rep 2 (intracellular MRSA; [6]): 13.6%; %GFP+ rep 3 (intracellular MRSA; [6]): 14.0%; cell death (HeLa cells; [4]): No; z-scoreHeLa mean (HeLa cells; [7]): 1.55; z-scoreHeLa rep 1 (HeLa cells; [8]): 0.63; z-scoreHeLa rep 2 (HeLa cells; [9]): 2.17; z-scoreHeLa rep 3 (HeLa cells; [10]): 1.84; cell count rep 1 (HeLa cells; [11]): 5478; cell count rep 2 (HeLa cells; [12]): 7140; cell count rep 3 (HeLa cells; [13]): 10804
O=C1Nc2ccc(C(=O)c3ccco3)cc2C1=Cc1cc(Cl)c(O)c(Cl)c1 [GW406108X] | 19.1% | 21.6% | 22.3% |  |  |  | No | 0.69 | 0.39 | 0.93 | 0.76 | No | 28408 | 39603 | 51964 | 1.33 | 1.26 | 0.90 | 1.82 | No | 
Nc1nc(-c2ccc3c(c2)C(=Cc2cc(Br)c(O)c(Br)c2)C(=O)N3)cs1 [GW407323A] |  |  |  | No | No | 0.14 |  |  |  |  |  |  |  |  |  |  |  |  |  |  | %GFP+ rep 1 (intracellular MRSA; [6]): 16.4%; %GFP+ rep 2 (intracellular MRSA; [6]): 13.5%; %GFP+ rep 3 (intracellular MRSA; [6]): 13.8%; z-scoreMRSA+ rep 1 (intracellular MRSA; [3]): 1.03; z-scoreMRSA+ rep 2 (intracellular MRSA; [3]): 0.0015; z-scoreMRSA+ rep 3 (intracellular MRSA; [3]): -0.62; cell count rep 1 (HeLa cells; [11]): 5658; cell count rep 2 (HeLa cells; [12]): 5858; cell count rep 3 (HeLa cells; [13]): 9419; cell death (HeLa cells; Yes/No call from z-scoreHeLa): No; z-scoreHeLa mean (HeLa cells; [24]): 1.06; z-scoreHeLa rep 1 (HeLa cells; [25]): 0.80; z-scoreHeLa rep 2 (HeLa cells; [26]): 1.20; z-scoreHeLa rep 3 (HeLa cells; [27]): 1.18
Cc1cc(-c2ccc3c(c2)CC[C@@H](N[C@@H](C)c2ccccc2)C3)cnc1N [GW412617A] | 20.0% | 21.4% | 20.6% |  |  |  | No | 0.60 | 0.68 | 0.86 | 0.25 | No | 42421 | 41709 | 47670 | 1.94 | 3.38 | 1.29 | 1.14 | No | 
O=C1Nc2ccc(-c3cccnc3)cc2C1=Cc1cc(Br)c(O)c(Br)c1 [GW429374A] | 14.3% | 14.7% | 15.6% |  |  |  | No | -1.18 | -1.13 | -1.15 | -1.27 | No | 24917 | 38643 | 50434 | 1.01 | 0.73 | 0.72 | 1.58 | No | 
Cc1cc(O)cc(C)c1/C=C/c1cncc(C(N)=O)c1 [GW435821X] | 14.7% | 15.8% | 16.5% |  |  |  | No | -0.94 | -1.00 | -0.82 | -1.00 | No | 9030 | 26110 | 32002 | -1.55 | -1.68 | -1.62 | -1.36 | No | 
c1ccc(-c2ccc3c(Nc4ccc5[nH]ccc5c4)ccnc3c2)nc1 [GW440138A] |  |  |  |  |  |  | No |  |  |  |  |  |  |  |  |  |  |  |  |  | effect (intracellular MRSA; [4]): No; z-scoreMRSA+ mean (intracellular MRSA; PKIS compound screen): 1.90; z-scoreMRSA+ rep 1 (intracellular MRSA; PKIS compound screen): 1.55; z-scoreMRSA+ rep 2 (intracellular MRSA; PKIS compound screen): 2.03; z-scoreMRSA+ rep 3 (intracellular MRSA; PKIS compound screen): 2.14; %GFP+ rep 1 (intracellular MRSA; [6]): 35.0%; %GFP+ rep 2 (intracellular MRSA; [6]): 36.6%; %GFP+ rep 3 (intracellular MRSA; [6]): 38.8%; cell death (HeLa cells; [4]): No; z-scoreHeLa mean (HeLa cells; [7]): 1.19; z-scoreHeLa rep 1 (HeLa cells; [8]): 0.89; z-scoreHeLa rep 2 (HeLa cells; [9]): 1.20; z-scoreHeLa rep 3 (HeLa cells; [10]): 1.48; cell count rep 1 (HeLa cells; [11]): 7521; cell count rep 2 (HeLa cells; [12]): 7813; cell count rep 3 (HeLa cells; [13]): 7928
Cc1ccc(C(=O)Nc2ccc(Nc3ccnc4cc(-c5ccccn5)ccc34)cc2O)cc1 [GW440146A] | 19.0% | 18.0% | 19.2% | No | No | -1.16 |  |  |  |  |  |  | 4799 | 4726 | 6030 |  |  |  |  |  | z-scoreMRSA+ rep 1 (intracellular MRSA; [3]): -1.46; z-scoreMRSA+ rep 2 (intracellular MRSA; [3]): -1.12; z-scoreMRSA+ rep 3 (intracellular MRSA; [3]): -0.90; cell death (HeLa cells; Yes/No call from z-scoreHeLa): No; z-scoreHeLa mean (HeLa cells; [24]): 0.38; z-scoreHeLa rep 1 (HeLa cells; [25]): 0.32; z-scoreHeLa rep 2 (HeLa cells; [26]): 0.33; z-scoreHeLa rep 3 (HeLa cells; [27]): 0.50
